This is an account of results in patent US12539292B2, “BRM targeting compounds and associated methods of use” (Arvinas Operations, Inc., priority 2018, dated 2026).

In this test the target is T1, BRM (Homo sapiens, UniProt P51531).
T1 construct: In-Cell Western Screen of BRM Degradation in SW1573 Cells; endogenous in cells; host or cells: SW1573
Kind of test: In-cell Western screen of BRM degradation in SW1573 cells (Dmax and DC50). The format is cell-based. In outline: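 After adhering overnight, cells received compound for 18-20 hours. They were then washed in cold DPBS, fixed with 4% PFA for 20 min and permeabilized for 30 min. Blocking and fluorescent secondary staining followed before imaging.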

Setting [1] is: BRM degradation, SW1573 cells, read-out: DC50.
[2] abbreviates: BRM degradation, SW1573 cells, when tested at the top concentration of between 0.3 and 10 μM, read-out: Dmax (%) (% degraded).
The mark [3] stands for this setting: BRM degradation, SW1573 cells, tested at the top concentration of between 0.3 and 10 μM, read-out: Dmax (%) (% degraded).
[4] abbreviates: SW1573, % degraded, when tested at the top concentration of between 0.3 and 10 μM, read-out: BRM Dmax (%).

Like-named read-outs stand apart in the source and are kept apart here.

T1 sequence (P51531 whole entry): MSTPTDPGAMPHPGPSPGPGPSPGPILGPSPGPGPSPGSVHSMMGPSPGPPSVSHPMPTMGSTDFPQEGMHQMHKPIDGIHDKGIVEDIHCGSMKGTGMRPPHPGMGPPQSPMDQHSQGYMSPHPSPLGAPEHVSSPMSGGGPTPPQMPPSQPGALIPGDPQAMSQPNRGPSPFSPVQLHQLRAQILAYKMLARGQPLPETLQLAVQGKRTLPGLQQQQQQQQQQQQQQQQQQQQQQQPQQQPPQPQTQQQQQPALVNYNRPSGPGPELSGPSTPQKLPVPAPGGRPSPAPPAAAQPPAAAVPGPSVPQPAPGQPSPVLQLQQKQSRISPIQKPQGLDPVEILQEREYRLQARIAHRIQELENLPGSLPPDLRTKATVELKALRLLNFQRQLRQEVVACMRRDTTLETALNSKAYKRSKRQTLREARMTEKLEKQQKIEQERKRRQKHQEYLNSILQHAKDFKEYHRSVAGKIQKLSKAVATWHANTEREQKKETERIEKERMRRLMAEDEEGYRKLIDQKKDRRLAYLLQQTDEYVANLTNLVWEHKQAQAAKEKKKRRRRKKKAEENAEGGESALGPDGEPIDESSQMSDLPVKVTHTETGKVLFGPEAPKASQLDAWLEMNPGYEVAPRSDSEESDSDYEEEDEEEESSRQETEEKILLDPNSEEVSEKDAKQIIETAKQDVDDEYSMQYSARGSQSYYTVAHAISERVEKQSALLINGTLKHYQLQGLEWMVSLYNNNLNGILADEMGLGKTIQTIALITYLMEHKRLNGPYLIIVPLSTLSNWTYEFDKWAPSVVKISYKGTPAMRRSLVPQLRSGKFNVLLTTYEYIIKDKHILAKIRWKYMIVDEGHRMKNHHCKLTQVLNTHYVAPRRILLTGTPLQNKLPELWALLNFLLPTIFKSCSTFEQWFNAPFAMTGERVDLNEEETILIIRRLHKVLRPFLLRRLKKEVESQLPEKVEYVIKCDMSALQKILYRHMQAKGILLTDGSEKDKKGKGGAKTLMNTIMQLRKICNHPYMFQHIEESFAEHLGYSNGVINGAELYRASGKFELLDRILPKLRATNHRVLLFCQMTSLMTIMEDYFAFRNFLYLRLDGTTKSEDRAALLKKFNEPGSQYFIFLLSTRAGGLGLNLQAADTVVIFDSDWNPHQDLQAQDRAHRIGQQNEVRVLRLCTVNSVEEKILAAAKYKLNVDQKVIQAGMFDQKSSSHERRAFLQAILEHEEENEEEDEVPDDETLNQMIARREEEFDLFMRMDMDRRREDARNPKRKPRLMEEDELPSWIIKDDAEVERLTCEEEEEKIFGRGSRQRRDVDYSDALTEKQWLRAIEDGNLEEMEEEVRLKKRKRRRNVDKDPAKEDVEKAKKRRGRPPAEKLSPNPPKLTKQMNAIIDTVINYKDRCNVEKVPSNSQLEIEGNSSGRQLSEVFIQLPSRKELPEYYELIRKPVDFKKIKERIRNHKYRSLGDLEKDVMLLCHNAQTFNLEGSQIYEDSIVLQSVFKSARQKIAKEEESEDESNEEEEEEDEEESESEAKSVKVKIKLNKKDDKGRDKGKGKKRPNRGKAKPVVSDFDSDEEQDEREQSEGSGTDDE

In general, DC50 refers to the concentration giving 50% degradation. The term Dmax denotes the largest share of the target that was removed. As to `Cc1ncsc1-c1ccc(CNC(=O)[C@@H]2C[C@@H](O)CN2C(=O)[C@@H](NC(=O)COCCOCCOCCn2cc(-c3cc(-c4ccccc4O)nnc3N)cn2)C(C)(C)C)cc1` [compound 1, (2S,4R)-1-((S)-14-(4-(3-amino-6-(2-hydroxyphenyl)pyridazin-4-yl)-1H-pyrazol-1-yl)-2-(tert-butyl)-4-oxo-6,9,12-trioxa-3-azatetradecanoyl)-4-hydroxy-N-(4-(4-methylthiazol-5-yl)benzyl)pyrrolidine-2-carboxamide], the DC50 under setting [1] was more than 30 nM. Moreover, under setting [2], the Dmax was more than 75%.
On the same counts, the results for `Cc1ncsc1-c1ccc(CNC(=O)[C@@H]2C[C@@H](O)CN2C(=O)[C@@H](c2cc(CCCOCCOCCOCCOCCn3cc(-c4cc(-c5ccccc5O)nnc4N)cn3)no2)C(C)C)cc1` [compound 26, (2S,4R)-1-[(2R)-2-[3-(1-[4-[3-amino-6-(2-hydroxyphenyl)pyridazin-4-yl]-1H-pyrazol-1-yl]-3,6,9,12-tetraoxapentadecan-15-yl)-1,2-oxazol-5-yl]-3-methylbutanoyl]-4-hydroxy-N-[[4-(4-methyl-1,3-thiazol-5-yl)phenyl]methyl]pyrrolidine-2-carboxamide] are 10 to 30 nM and more than 75%.
`Cc1ncsc1-c1ccc([C@H](C)NC(=O)[C@@H]2C[C@@H](O)CN2C(=O)[C@H](c2cc(OCCOCCOCCCCN3CCC4(CC3)CCN(c3cc(-c5ccccc5O)nnc3N)CC4)no2)C(C)C)cc1` [compound 67, (2S,4R)-1-((S)-2-(3-(2-(2-(4-(9-(3-amino-6-(2-hydroxyphenyl)pyridazin-4-yl)-3,9-diazaspiro[5.5]undecan-3-yl)butoxy)ethoxy)ethoxy)isoxazol-5-yl)-3-methylbutanoyl)-4-hydroxy-N-((S)-1-(4-(4-methylthiazol-5-yl)phenyl)ethyl)pyrrolidine-2-carboxamide]: the DC50 under setting [1] is more than 30 nM.
`Cc1ncsc1-c1ccc([C@H](C)NC(=O)[C@@H]2C[C@@H](O)CN2C(=O)[C@H](c2onc(OCCN3CCN(CCOc4cc(N5C6CCC5CN(c5cc(-c7ccccc7O)nnc5N)C6)ccn4)CC3)c2F)C(C)C)cc1` [compound 198, (2S,4R)-1-((2S)-2-(3-(2-(4-(2-((4-(3-(3-amino-6-(2-hydroxyphenyl)pyridazin-4-yl)-3,8-diazabicyclo[3.2.1]octan-8-yl)pyridin-2-yl)oxy)ethyl)piperazin-1-yl)ethoxy)-4-fluoroisoxazol-5-yl)-3-methylbutanoyl)-4-hydroxy-N-((S)-1-(4-(4-methylthiazol-5-yl)phenyl)ethyl)pyrrolidine-2-carboxamide]: the DC50 under setting [1] is 10 to 30 nM. In addition, the Dmax under setting [3] was more than 75%.
Regarding `Cc1ncsc1-c1ccc(CNC(=O)[C@@H]2C[C@@H](O)CN2C(=O)[C@@H](NC(=O)COCCOCCOCCOc2cncc(N3C4CCC3CN(c3cc(-c5ccccc5O)nnc3N)C4)n2)C(C)(C)C)cc1` [compound 34, (2S,4R)-1-[(2S)-2-[1-(6-[3-[3-amino-6-(2-hydroxyphenyl)pyridazin-4-yl]-3,8-diazabicyclo[3.2.1]octan-8-yl]pyrazin-2-yl)-1,4,7,10-tetraoxadodecan-12-amido]-3,3-dimethylbutanoyl]-4-hydroxy-N-[[4-(4-methyl-1,3-thiazol-5-yl)phenyl]methyl]pyrrolidine-2-carboxamide], the DC50 under setting [1] was more than 30 nM. In addition, the Dmax under setting [2] was more than 75%.
Turning to `Cc1nccn1-c1ccc([C@H](C)NC(=O)[C@@H]2C[C@@H](O)CN2C(=O)[C@@H](c2cc(N3CCC(O[C@H]4C[C@H](Oc5cc(N6C7CCC6CN(c6cc(-c8ccccc8O)nnc6N)C7)ccn5)C4)CC3)no2)C(C)C)cc1` [compound 601, (2S,4R)-1-((2R)-2-(3-(4-((1r,3R)-3-((4-(3-(3-amino-6-(2-hydroxyphenyl)pyridazin-4-yl)-3,8-diazabicyclo[3.2.1]octan-8-yl)pyridin-2-yl)oxy)cyclobutoxy)piperidin-1-yl)isoxazol-5-yl)-3-methylbutanoyl)-4-hydroxy-N-((S)-1-(4-(2-methyl-1H-imidazol-1-yl)phenyl)ethyl)pyrrolidine-2-carboxamide], the Dmax (BRM degradation, SW1573 cells, Table 2D, read-out: **Dmax (%) (% degraded)) was more than 75%. For the same compound, the DC50 (BRM degradation, SW1573 cells, Table 2D, read-out: *DC50) is less than 2.5 nM.
As to `Cc1ncsc1-c1ccc([C@H](C)NC(=O)[C@@H]2C[C@@H](O)CN2C(=O)[C@@H](c2cc(OC3CN(CCN4CCC(O[C@H]5C[C@H](Oc6cc(N7C8CCC7CN(c7cc(-c9ccccc9O)nnc7N)C8)ccn6)C5)CC4)C3)no2)C(C)C)cc1` [compound 371, (2S,4R)-1-((2R)-2-(3-((1-(2-(4-((1r,3r)-3-((4-(3-(3-amino-6-(2-hydroxyphenyl)pyridazin-4-yl)-3,8-diazabicyclo[3.2.1]octan-8-yl)pyridin-2-yl)oxy)cyclobutoxy)piperidin-1-yl)ethyl)azetidin-3-yl)oxy)isoxazol-5-yl)-3-methylbutanoyl)-4-hydroxy-N-((S)-1-(4-(4-methylthiazol-5-yl)phenyl)ethyl)pyrrolidine-2-carboxamide], the Dmax under setting [4] is more than 75%. Moreover, the DC50 (target protein degradation, read-out: BRM DC50) is less than 2.5 nM.
For the compound `Cc1nccn1-c1ccc([C@H](C)NC(=O)[C@@H]2C[C@@H](O)CN2C(=O)[C@@H](c2cc(OCC#Cc3ccc(O[C@H]4C[C@H](Oc5cc(N6C7CCC6CN(c6cc(-c8ccccc8O)nnc6N)C7)ccn5)C4)cn3)no2)C(C)C)cc1` [compound 234, (2S,4R)-1-((2R)-2-(3-((3-(5-((1r,3R)-3-((4-(3-(3-amino-6-(2-hydroxyphenyl)pyridazin-4-yl)-3,8-diazabicyclo[3.2.1]octan-8-yl)pyridin-2-yl)oxy)cyclobutoxy)pyridin-2-yl)prop-2-yn-1-yl)oxy)isoxazol-5-yl)-3-methylbutanoyl)-4-hydroxy-N-((S)-1-(4-(2-methyl-1H-imidazol-1-yl)phenyl)ethyl)pyrrolidine-2-carboxamide], under setting [1], the DC50 was less than 2.5 nM. Moreover, under setting [3], the Dmax was more than 75%.
For the compound `Cc1ncsc1-c1ccc([C@H](C)NC(=O)[C@@H]2C[C@@H](O)CN2C(=O)[C@@H](c2cc(OCCN3CCC(O[C@H]4C[C@H](Oc5cc(/C=C/c6cc(-c7ccccc7O)nnc6N)ccn5)C4)CC3)no2)C(C)C)cc1` [compound 428, (2S,4R)-1-((R)-2-(3-(2-(4-((1r,3R)-3-((4-((E)-2-(3-amino-6-(2-hydroxyphenyl)pyridazin-4-yl)vinyl)pyridin-2-yl)oxy)cyclobutoxy)piperidin-1-yl)ethoxy)isoxazol-5-yl)-3-methylbutanoyl)-4-hydroxy-N-((S)-1-(4-(4-methylthiazol-5-yl)phenyl)ethyl)pyrrolidine-2-carboxamide], under setting [4], the Dmax was more than 75%. For the setting “degradation of BRM, read-out: BRM DC50”, the DC50 is less than 2.5 nM.
On to `Cc1ncsc1-c1ccc(CNC(=O)[C@@H]2C[C@@H](O)CN2C(=O)[C@@H](NC(=O)COCCOCCOCCOCCOCCn2cc(-c3cc(-c4ccccc4O)nnc3N)cn2)C(C)(C)C)cc1` [compound 4, (2S,4R)-1-((S)-20-(4-(3-amino-6-(2-hydroxyphenyl)pyridazin-4-yl)-1H-pyrazol-1-yl)-2-(tert-butyl)-4-oxo-6,9,12,15,18-pentaoxa-3-azaicosanoyl)-4-hydroxy-N-(4-(4-methylthiazol-5-yl)benzyl)pyrrolidine-2-carboxamide], for which the DC50 under setting [1] is more than 30 nM. Besides, the Dmax under setting [2] was more than 75%.
Consider `CC(C)C(C(=O)N1C[C@H](O)C[C@H]1C(=O)N[C@@H](C)c1ccc(-c2scnc2C#CCN(C)C)cc1)c1cc(OCCN2CCN(CCOc3cc(N4C5CCC4CN(c4cc(-c6ccccc6O)nnc4N)C5)ccn3)CC2)no1` (stereo partly drawn) [compound 172, (2S,4R)-1-(2-(3-(2-(4-(2-((4-(3-(3-amino-6-(2-hydroxyphenyl)pyridazin-4-yl)-3,8-diazabicyclo[3.2.1]octan-8-yl)pyridin-2-yl)oxy)ethyl)piperazin-1-yl)ethoxy)isoxazol-5-yl)-3-methylbutanoyl)-N-((S)-1-(4-(4-(3-(dimethylamino)prop-1-yn-1-yl)thiazol-5-yl)phenyl)ethyl)-4-hydroxypyrrolidine-2-carboxamide], for which, under setting [1], the DC50 is less than 2.5 nM. Also, the Dmax under setting [3] is more than 75%.
On the same counts, the results for `CC(C)[C@H](C(=O)N1C[C@H](O)C[C@H]1C(=O)N[C@@H](C)c1ccc(-c2nccn2C)cc1)c1cc(OCCN2CCN(CCOc3cc(N4C5CCC4CN(c4cc(-c6ccccc6O)nnc4N)C5)ccn3)CC2)no1` [compound 159, (2S,4R)-1-((2S)-2-(3-(2-(4-(2-((4-(3-(3-amino-6-(2-hydroxyphenyl)pyridazin-4-yl)-3,8-diazabicyclo[3.2.1]octan-8-yl)pyridin-2-yl)oxy)ethyl)piperazin-1-yl)ethoxy)isoxazol-5-yl)-3-methylbutanoyl)-4-hydroxy-N-((S)-1-(4-(1-methyl-1H-imidazol-2-yl)phenyl)ethyl)pyrrolidine-2-carboxamide] are more than 30 nM and less than 50%.
With `Cc1ncsc1-c1ccc([C@H](CCCC(=O)O)NC(=O)[C@@H]2C[C@@H](O)CN2C(=O)C(c2cc(OCCN3CCC(O[C@H]4C[C@H](Oc5cc(N6C7CCC6CN(c6cc(-c8ccccc8O)nnc6N)C7)ccn5)C4)CC3)no2)C(C)C)cc1` (stereo partly drawn) [compound 687, (5S)-5-((2S,4R)-1-(2-(3-(2-(4-((1r,3r)-3-((4-(3-(3-amino-6-(2-hydroxyphenyl)pyridazin-4-yl)-3,8-diazabicyclo[3.2.1]octan-8-yl)pyridin-2-yl)oxy)cyclobutoxy)piperidin-1-yl)ethoxy)isoxazol-5-yl)-3-methylbutanoyl)-4-hydroxypyrrolidine-2-carboxamido)-5-(4-(4-methylthiazol-5-yl)phenyl)pentanoic acid], under setting [1], the DC50 is more than 30 nM.
